Earlier results, collected in patent publication US20050106735A1, “COMPOSITON FOR NON-TOXIC, NON-HAZARDOUS, AND ENVIRONMENTALLY FRIENDLY HUMIDITY-INDICATING AGENT AND ITS APPLICATION” (GP&E AMERICA, LLC, priority 2004, published 2005).

Key:
[1] = test system: Rat; details: oral
[2] = test system: aquatic organisms

SMILES	Toxicity (ORL-RAT LD50) [1] [mg/kg]	Toxicity to aquatic organisms [2]	Concentration at which the substance may cause cancer by inhalation (Commission Directive 2004/73/EC) [%]	European Union carcinogen classification (Council Directive 67/548/EEC)
[Cl][Cu][Cl] [Copper Chloride]	584	–	–	–
[Cl-].[Cl-].[Zn+2] [Zinc Chloride]	350	very toxic to aquatic organisms	–	–
[Cl-].[Cl-].[Mg+2] [Magnesium Chloride]	8100	–	–	–
[Cl][Co][Cl] [Cobalt Chloride]	80	–	≥ 0.01	category 2 carcinogen
[Cl-].[Na+] [Sodium Chloride]	3000	–	–	–
